Consider 1 compound from publication PMC8667918, “Synthesis and biological evaluation of halogenated phenoxychalcones and their corresponding pyrazolines as cytotoxic agents in human breast cancer” (Journal of Enzyme Inhibition and Medicinal Chemistry, 2021).

Values joined by “and” are separate entries in the source; they are usually repeats but may differ in a detail not shown here. Identical values can stand only once.

Data set [1] relates to MCF-7 cells. As to the kind of experiment: Annexin V-FITC/PI apoptosis assay by flow cytometry. The data set is classed as cell-based, human. Particulars: 24 h. How it is done: Apoptosis assessment was carried out by flow cytometry using Annexin V-FITC and propidium iodide double-staining apoptosis detection kit (Biovision, USA) according to the manufacturer instructions. Annexin V is a protein with high affinity for phosphatidylserine (PS). The latter is a cell membrane component that translocate from the inner face of the plasma membrane to the cell surface soon after initiating apoptosis. […] The cells were then collected by centrifugation and re-suspended in 500 μL of binding buffer. Annexin V-FITC and PI double staining was performed by adding 5 μL of Annexin V-FITC and 5 μL of PI. The cells were then incubated in dark, at room temperature for 5 min. After incubation, cell fluorescence was evaluated using FacsCalibur (BD Biosciences, USA). Dot-plot graphs were used to illustrate the results.

Data set [2] has as its system MCF-7 breast cancer cell line. In words: MTT assay, cytotoxicity against breast cancer cell line MCF-7. How it is done:
(§1) Human breast cancer cell line MCF-7 and normal breast cell line MCF-10a were obtained from American type culture collection, MCF-7 cells were cultured using Dulbecco’s Modified Eagle Medium DMEM (Invitrogen/Life Technologies) supplemented with 10% FBS (Hyclone), 10 µg/ml of insulin (Sigma), and 1% penicillin-streptomycin. MCF-10a cell line was cultured using DMEM medium supplemented with 10% FBS, 1% sodium pyruvate, 1% MEM NEAA, 20 ng/ml human epidermal growth factor (HEGF), 10 μg/ml insulin and 0.05 mM hydrocortisone. The cells were incubated at 37 °C in a humidified atmosphere of 5% CO2.
(§2) The anticancer effect of phenoxychalcones and N-acetylpyrazolines on the viability of both tumour and normal cells was evaluated using МТТ assay as a rapid colorimetric assay. It is based on the ability of mitochondrial dehydrogenases of viable cells to reduce yellow tetrazolium salt MTT to blue formazan in quantities proportional to the number of living cells. The cells were incubated with the medium alone or with the tested compounds at concentrations of 100 µM, 25 µM, 6.25 µM, 1.56 µM and 0.39 µM for 48 h. […] Then, 20 μL MTT solution was added to each well and mixed. After 4 h, the supernatants were removed and 100 μL DMSO was added to each well to dissolve the precipitate. The viability of cells was estimated by measuring the absorbance at 570 nm using a Bioline ELIZA plate reader. The cell viability percentage was calculated based on the absorbance ratio between cell culture treated with the compounds and the untreated control multiplied by 100. Selectivity index (SI) was calculated as the ratio of cytotoxicity (IC50) on normal cells (MCF-10a) to cancer cells (MCF-7).

Data set [3] relates to MCF-7 cells. In words: Cell cycle analysis by propidium iodide flow cytometry. The format is cell-based, human. The method, then: The cell cycle analysis was carried out by flow cytometry using ab139418_propidium iodide flow cytometry kit/BD (Abcam, Cambridge, UK) according to the manufacturer instructions. […] After treatment, the cells were washed twice with ice-cold phosphate buffer saline (PBS) and collected by centrifugation. The cells were then fixed using ice-cold 66% (v/v) ethanol, washed with PBS, and re-suspended with 0.1 mg/mL RNase to digest cellular RNA and thus minimise stained RNA in the background. The cells were then stained with […] propidium iodide (PI), a fluorescent molecule with the ability to bind to nucleic acid. PI binds to the DNA in cells in proportion to its amount. As the DNA content is different among cells in different phases of cell cycle, the stage of cell growth can be determined based on fluorescence intensity. Cell fluorescence was evaluated using FacsCalibur (BD Biosciences, USA) and analysed using Cell- Quest software (Becton Dickinson)[41]. Cell cycle analysis of MCF-7 cells without any treatment was used as control.
(A flow cytometer gives signals particle by particle.)

Data set [4] deals with MCF-7 cells. As to the kind of experiment: Intracellular reactive oxygen species (ROS) analysis with H2DCFDA. Particulars: MCF-7, 1.52 µM. The format is cell-based, human. How it is done: Intracellular ROS was detected by cell-permeable fluorogenic probe H2DCFDA. Cell culture subdivided into three groups. The groups are the negative control (untreated MCF-7 cells), the positive control group (MCF-7 cells treated with H2O2), and test group (MCF-7 cells treated with compound 2c). After removing the culture supernatants, the cells were then incubated in fresh medium with 10 µM H2DCFDA at the dark at 37 °C for 1 h. The cells were washed with PBS buffer, then, harvested and the pellets were suspended in PBS. Samples were analysed ROBONIK P2000 ELISA reader wavelength 450 nm.

In data set [5] the test system is p38 MAPK (phosphorylated and total) in MCF-7 cells. In words: p38 MAPK (phosphorylated and total) ELISA in treated cells. The data set is classed as cell-based, human. To be noted: MCF-7, 1.52 µM, vs untreated cells. How it is done: Measurements were performed using ELISA kits (R&D systems, Minneapolis, MN, USA ELISA (Cat. # KHO0071) and p38 MAPK (Total) ELISA, according to the manufacturer’s instructions.
A general note: In an ELISA, binding on a coated surface is turned into a signal by an enzyme label.

The nature of data set [6]: in vitro. To be noted: human. How it is done: as §1, §2
[7] abbreviates: MCF-7, 1.52 µM, in comparison to the control (DMSO).
[8] abbreviates: MCF-7, 1.52 µM, relative to control (DMSO).

As a reminder, the IC50 is the concentration that inhibits the measured activity by half. For the compound `Cc1ccc(C(=O)C=Cc2ccc(Oc3ccc(Br)cc3)cc2)cc1` [Compound 2c, 3–(4-(4-Bromophenoxy)phenyl)-1-(p-tolyl)prop-2-en-1-one], in data set [1] (MCF-7, 1.52 µM (IC50)), the “apoptotic cells percentage, early apoptosis” value came to 5.17%; the “apoptotic cells percentage, late apoptosis” value is 21.96%; the percentage necrosis was 2.28%; the “percentage of total apoptosis” value is 29.41%. Besides, in data set [1] (MCF-7, 1.52 µM), the “elevation in late apoptosis, fold more than control” value turned out to be 57.78 fold; the “increase in early apoptosis, fold more than control” value is 9.0 fold; the “increase in total apoptosis, fold compared to the control” value is on record as 16.24 fold. In addition, in data set [2], the “fold more active than 2a” value is recorded as 5.6 fold and the “fold more active than 2b” value was 8.7 fold. For the same compound, the IC50 in data set [2] (Homo sapiens, MCF7, 48 h, read-out: In vitro cytotoxicity IC50 MCF-7) was 1.52 ± 0.03 µM. In addition, in data set [2] (ratio of IC50 on normal cells (MCF-10a) to cancer cells (MCF-7)), the Selectivity index is 15 and 15.24. For the same compound, the “phase of cell cycle arrest” value in data set [3] (MCF-7, 1.52 µM) was “G2/M phase”. In addition, in data set [3] (MCF-7, 1.52 µM (IC50), 24 h), the “cell population %G0/G1” value is on record as 24.92%, the “cell population %G2/M” value turned out to be 45.86%, the “cell population %Pre G1” value was determined as 29.41% and the “cell population %S” value was 29.22%. In addition, in data set [3] (setting [7]), the “augmentation of proportion of cells in the G2/M phase” value was found to be 4.25 fold and the “augmentation of proportion of cells in the pre-G1 phase” value was determined as 16.24 fold. In addition, in data set [3] (setting [8]), the “decline in the cell population at the G0/G1 phase” value turned out to be 54.73% and the “decline in the cell population at the S phase” value worked out at 14.5%. Also, the “ROS induction higher than control” value in data set [4] was 10%. Further, in data set [5], the “down-regulation of total p38 MAPK” value is listed as about 40% and the “interference with p38 MAPK phosphorylation (decrease of phosphorylated p38 MAPK)” value is about 60%. The compound further gave an IC50 in data set [6] of 23.2 ± 0.88 µM.
